According to ChEMBL document CHEMBL1201862, “PubChem BioAssay data set” (2004):
The source made the active and inactive calls.

Assays:
Fatty acid synthase [1] = target: T1, Fatty acid synthase (Homo sapiens, UniProt P49327); assay: FAS thioesterase domain inhibitors, dose response, biochemical, kinetic fluorescence intensity (AID 624326); type: functional;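 also: rate of fluorescence rise from hydrolysis of a fluorogenic O-methyl fluorescein ester substrate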
Fatty acid synthase [2] = target: T1, Fatty acid synthase; assay: FAS thioesterase domain inhibitors, dose response, biochemical, endpoint fluorescence intensity, uHTS hits (AID 624327); type: functional;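 also: fluorescence from hydrolysis of an O-methyl fluorescein acyl ester substrate by the enzyme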
Protein skinhead-1 = target: T2, Protein skinhead-1 (Caenorhabditis elegans, UniProt P34707); type: functional
T2 sequence (P34707 whole entry): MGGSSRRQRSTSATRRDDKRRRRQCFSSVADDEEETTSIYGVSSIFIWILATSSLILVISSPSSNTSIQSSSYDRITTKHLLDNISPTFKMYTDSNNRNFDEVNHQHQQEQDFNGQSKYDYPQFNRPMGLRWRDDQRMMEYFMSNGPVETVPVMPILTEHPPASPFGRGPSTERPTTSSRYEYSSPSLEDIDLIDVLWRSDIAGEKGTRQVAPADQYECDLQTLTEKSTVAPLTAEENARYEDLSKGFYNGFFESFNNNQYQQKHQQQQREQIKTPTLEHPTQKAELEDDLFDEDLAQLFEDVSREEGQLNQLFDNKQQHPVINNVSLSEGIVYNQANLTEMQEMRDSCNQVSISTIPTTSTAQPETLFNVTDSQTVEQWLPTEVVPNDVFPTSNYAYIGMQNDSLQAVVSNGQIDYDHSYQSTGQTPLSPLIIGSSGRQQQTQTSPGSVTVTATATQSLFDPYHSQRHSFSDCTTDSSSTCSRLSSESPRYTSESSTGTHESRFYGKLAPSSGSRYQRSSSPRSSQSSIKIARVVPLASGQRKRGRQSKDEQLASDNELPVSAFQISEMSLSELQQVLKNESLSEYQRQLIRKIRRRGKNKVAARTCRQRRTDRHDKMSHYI

[3] = target: T3, Ubiquitin-conjugating enzyme E2 N (Homo sapiens, UniProt P61088); type: functional;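 also: Dose-response confirmation in a TR-FRET assay detecting UBC13-driven polyubiquitin chain formation, inhibition measured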
T3 sequence (P61088 whole entry): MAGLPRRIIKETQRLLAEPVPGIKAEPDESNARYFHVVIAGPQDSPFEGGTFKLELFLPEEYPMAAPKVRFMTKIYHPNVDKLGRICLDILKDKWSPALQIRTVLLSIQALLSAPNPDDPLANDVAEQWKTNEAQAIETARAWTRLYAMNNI

INS1 = assay: beta cell apoptosis inhibitors, cytokine rescue, dose response, luminescence, retest (AID 449756); type: functional, cell-based; conditions: Rattus norvegicus;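 also: cell death triggered by IL-1 beta plus TNF-alpha plus IFN-gamma mixture; protective hits raise ATP signal compared with cytokine alone wells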
[4] = Luminescence Cell-Based Dose Retest to Confirm Inhibitors of Cancer Stem Cells. [Related pubchem assays (depositor defined):AID2717, AID2721]; type: functional, Homo sapiens; conditions: Homo sapiens
[5] = target: T4, Calpain-2 catalytic subunit (Sus scrofa, UniProt P43367); assay: pig calpain II inhibitor potency, dose response, biochemical, fluorogenic peptide substrate (AID 1420); type: functional
T4 sequence (P43367 whole entry): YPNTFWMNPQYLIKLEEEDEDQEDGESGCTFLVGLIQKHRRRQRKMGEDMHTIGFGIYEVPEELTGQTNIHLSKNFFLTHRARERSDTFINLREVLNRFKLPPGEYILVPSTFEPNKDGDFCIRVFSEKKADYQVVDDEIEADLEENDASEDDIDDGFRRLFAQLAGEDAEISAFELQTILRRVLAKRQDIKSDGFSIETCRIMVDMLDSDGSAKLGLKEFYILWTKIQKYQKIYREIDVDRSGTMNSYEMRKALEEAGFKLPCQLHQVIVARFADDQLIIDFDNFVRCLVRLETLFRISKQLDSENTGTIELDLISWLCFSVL

[6] = target: T5, Histone-lysine N-methyltransferase NSD2 (Homo sapiens, UniProt O96028); type: biochemical
T5 sequence (O96028 whole entry): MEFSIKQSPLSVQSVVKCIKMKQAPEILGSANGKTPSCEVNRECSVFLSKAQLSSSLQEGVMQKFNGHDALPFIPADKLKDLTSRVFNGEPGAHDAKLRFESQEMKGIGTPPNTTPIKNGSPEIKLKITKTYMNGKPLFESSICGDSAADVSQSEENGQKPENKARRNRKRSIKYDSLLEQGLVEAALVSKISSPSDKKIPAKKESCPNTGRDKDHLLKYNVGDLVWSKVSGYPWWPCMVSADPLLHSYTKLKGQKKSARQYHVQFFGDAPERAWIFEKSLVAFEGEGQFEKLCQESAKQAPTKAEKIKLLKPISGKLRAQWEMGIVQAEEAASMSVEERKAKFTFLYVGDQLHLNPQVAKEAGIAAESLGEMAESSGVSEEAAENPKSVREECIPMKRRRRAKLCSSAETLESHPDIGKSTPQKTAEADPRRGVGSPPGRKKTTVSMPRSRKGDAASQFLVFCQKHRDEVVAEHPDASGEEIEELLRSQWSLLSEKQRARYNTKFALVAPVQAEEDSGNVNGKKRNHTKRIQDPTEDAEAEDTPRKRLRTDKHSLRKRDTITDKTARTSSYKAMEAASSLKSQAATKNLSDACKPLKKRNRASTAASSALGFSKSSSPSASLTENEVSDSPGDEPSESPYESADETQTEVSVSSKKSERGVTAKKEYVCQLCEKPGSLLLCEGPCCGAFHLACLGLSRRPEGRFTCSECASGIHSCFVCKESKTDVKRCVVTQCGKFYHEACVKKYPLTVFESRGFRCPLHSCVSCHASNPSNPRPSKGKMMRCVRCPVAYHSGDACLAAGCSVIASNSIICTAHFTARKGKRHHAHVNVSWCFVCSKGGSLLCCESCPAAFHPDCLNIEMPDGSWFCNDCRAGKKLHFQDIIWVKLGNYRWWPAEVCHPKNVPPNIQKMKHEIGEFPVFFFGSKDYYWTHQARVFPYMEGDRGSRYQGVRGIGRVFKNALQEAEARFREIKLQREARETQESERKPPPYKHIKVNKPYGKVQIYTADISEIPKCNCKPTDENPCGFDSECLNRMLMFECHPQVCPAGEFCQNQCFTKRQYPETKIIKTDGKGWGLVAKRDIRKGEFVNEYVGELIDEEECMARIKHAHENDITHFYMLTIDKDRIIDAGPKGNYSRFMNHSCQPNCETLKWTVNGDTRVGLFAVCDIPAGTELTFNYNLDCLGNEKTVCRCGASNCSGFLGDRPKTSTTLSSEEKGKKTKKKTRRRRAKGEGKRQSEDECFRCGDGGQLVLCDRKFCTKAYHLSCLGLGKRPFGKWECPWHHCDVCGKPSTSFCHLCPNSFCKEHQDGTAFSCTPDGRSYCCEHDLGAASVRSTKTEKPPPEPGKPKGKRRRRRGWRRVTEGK

Protein RecA = target: T6, Protein RecA (Mycobacterium tuberculosis, UniProt P9WHJ3); assay: Fluorescence Cell-Free Homogeneous Dose Retest to Identify Inhibitors of RecA-Intein Splicing Activity. [Related pubchem assays (depositor defined):AID2097, AID2223, AID489010, AID492950]; type: functional
T6 sequence (P9WHJ3 whole entry): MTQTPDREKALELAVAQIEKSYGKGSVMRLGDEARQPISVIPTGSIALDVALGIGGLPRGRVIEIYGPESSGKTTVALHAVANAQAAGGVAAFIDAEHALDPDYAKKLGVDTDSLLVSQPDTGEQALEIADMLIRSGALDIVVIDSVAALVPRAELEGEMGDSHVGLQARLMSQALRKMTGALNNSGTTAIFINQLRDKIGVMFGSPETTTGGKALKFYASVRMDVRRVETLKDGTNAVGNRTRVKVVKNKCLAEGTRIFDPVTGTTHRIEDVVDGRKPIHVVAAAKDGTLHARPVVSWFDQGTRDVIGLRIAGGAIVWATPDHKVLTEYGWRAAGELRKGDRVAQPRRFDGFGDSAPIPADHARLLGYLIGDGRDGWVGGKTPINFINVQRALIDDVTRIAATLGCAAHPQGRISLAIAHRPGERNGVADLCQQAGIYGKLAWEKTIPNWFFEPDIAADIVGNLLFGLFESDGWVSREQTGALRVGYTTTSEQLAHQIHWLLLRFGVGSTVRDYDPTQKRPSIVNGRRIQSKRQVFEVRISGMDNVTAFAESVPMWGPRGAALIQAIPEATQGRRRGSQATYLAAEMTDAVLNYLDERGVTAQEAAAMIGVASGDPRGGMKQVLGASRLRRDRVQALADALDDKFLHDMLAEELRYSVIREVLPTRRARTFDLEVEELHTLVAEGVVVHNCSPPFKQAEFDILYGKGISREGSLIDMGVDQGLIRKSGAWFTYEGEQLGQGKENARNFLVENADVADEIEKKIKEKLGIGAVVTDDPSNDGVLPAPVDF

[7] = target: T7, Replicative DNA helicase DnaB (Mycobacterium tuberculosis, UniProt P9WMR3); assay: DnaB intein splicing inhibitors, dose response, biochemical, cell-free fluorescence (AID 449749); type: functional
T7 sequence (P9WMR3 whole entry): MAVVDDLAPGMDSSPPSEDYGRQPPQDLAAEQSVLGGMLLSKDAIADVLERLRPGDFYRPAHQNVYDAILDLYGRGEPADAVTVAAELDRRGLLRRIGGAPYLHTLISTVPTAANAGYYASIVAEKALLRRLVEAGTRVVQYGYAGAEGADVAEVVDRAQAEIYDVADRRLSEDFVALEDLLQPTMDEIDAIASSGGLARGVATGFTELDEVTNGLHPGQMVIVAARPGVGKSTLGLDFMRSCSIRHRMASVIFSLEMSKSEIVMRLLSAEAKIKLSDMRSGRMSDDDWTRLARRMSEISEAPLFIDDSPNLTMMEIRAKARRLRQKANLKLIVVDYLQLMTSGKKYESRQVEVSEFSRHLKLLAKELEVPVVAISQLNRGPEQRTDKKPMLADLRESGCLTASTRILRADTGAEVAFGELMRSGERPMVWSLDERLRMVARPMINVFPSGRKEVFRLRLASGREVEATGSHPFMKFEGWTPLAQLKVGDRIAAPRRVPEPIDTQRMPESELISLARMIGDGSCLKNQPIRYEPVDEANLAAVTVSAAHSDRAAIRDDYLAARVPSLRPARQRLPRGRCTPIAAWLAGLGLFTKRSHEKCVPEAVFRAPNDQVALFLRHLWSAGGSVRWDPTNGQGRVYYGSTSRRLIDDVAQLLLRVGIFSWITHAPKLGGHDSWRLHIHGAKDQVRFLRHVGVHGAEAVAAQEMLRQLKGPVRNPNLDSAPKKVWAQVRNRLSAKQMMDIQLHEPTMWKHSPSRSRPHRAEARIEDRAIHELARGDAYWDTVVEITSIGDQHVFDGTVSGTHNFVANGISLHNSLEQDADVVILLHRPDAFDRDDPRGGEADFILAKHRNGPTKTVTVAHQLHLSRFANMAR

Nonstructural protein 1 = Nonstructural protein 1 (Influenza A virus, UniProt Q194T2); type: functional, Influenza A virus (A/California/07/2009(H1N1))
Vero = assay: cells; type: functional; conditions: Chlorocebus sabaeus

Chain of Nonstructural protein 1 (Q194T2 whole entry): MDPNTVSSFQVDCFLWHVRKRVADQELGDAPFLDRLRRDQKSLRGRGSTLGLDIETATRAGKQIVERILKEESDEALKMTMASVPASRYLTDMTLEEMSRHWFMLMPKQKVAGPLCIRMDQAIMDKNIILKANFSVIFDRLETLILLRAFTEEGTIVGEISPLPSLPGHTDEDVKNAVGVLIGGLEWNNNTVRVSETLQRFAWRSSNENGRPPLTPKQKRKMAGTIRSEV
T1 sequence (P49327 whole entry, the tested form may be a part): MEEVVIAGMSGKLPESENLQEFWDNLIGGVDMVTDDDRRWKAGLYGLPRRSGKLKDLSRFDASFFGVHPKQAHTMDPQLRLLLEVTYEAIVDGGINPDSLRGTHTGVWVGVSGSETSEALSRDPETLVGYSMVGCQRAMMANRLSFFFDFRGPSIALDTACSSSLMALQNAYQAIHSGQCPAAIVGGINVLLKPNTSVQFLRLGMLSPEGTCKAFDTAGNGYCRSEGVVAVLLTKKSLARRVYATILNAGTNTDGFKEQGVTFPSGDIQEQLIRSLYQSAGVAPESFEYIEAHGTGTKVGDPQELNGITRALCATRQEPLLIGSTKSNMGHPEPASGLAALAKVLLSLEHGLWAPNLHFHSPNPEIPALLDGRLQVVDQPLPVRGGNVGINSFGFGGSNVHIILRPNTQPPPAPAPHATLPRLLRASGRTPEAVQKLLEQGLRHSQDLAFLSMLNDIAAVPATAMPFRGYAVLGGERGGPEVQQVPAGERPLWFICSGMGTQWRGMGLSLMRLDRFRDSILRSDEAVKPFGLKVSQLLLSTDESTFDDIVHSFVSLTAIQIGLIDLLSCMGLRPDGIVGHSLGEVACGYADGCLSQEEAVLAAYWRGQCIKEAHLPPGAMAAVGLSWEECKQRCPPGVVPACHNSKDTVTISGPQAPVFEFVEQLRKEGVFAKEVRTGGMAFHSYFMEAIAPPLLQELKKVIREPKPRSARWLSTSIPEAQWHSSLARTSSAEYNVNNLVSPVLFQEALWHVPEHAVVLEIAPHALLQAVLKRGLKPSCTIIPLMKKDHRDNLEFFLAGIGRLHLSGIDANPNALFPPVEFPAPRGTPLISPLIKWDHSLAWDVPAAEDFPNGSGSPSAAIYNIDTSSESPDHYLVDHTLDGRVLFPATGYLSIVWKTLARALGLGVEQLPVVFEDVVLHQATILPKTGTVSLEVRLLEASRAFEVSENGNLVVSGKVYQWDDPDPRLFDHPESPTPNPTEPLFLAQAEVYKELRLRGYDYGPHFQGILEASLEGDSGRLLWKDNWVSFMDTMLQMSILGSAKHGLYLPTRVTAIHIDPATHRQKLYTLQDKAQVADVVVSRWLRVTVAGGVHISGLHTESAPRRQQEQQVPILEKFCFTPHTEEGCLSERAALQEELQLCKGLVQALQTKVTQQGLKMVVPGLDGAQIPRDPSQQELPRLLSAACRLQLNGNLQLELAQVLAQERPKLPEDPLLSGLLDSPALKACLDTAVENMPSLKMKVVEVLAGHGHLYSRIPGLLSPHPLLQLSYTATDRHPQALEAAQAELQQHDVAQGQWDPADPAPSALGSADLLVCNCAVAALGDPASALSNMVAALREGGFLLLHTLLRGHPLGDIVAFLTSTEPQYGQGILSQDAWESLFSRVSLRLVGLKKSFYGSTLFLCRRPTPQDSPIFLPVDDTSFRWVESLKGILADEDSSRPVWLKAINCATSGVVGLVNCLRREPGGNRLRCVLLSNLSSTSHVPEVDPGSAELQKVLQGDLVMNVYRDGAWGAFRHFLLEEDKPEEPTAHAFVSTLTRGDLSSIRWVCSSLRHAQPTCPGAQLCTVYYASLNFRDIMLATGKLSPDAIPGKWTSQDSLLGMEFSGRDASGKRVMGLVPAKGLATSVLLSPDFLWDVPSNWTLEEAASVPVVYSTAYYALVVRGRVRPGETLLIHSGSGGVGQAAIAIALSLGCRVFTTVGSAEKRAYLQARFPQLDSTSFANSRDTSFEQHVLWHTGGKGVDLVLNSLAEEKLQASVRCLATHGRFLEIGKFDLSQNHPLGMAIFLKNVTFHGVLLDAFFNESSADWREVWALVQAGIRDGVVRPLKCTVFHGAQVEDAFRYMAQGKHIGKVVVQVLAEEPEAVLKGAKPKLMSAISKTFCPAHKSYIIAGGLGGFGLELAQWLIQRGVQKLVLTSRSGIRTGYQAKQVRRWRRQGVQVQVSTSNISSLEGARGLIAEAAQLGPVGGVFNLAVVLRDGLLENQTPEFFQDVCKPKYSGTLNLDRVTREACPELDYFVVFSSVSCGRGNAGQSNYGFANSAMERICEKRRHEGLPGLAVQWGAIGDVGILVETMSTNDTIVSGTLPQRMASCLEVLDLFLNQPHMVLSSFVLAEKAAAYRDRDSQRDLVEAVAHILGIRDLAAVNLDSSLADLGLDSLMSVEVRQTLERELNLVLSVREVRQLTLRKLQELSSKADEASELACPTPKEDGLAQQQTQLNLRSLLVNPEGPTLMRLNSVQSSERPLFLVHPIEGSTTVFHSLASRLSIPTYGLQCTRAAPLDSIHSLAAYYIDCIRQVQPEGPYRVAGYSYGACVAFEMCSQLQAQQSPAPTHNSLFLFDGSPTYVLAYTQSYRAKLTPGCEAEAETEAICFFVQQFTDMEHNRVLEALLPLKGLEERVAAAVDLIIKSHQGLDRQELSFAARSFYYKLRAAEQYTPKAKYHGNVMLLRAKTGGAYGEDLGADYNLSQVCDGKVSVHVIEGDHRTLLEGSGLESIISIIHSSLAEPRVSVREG

CC(=O)NNc1nc(-c2ccccc2)cs1
IC50 (Fatty acid synthase [1]): 18.2 µM (active) | IC50 (Fatty acid synthase [2]): 18.6 µM (active)

Cc1cc2cc(CN=C(S)NCc3ccccc3)ccc2n1C
IC50 (Protein skinhead-1): > 100 µM (inactive)

COc1cc2sc(-c3ccccc3OC)c(-c3ccc(OCCN4CCCCC4)cc3)c2cc1OC
IC50 [3]: > 20 µM (inactive) | AC50 (INS1): 7.69 µM (active) | AC50 [4]: 6.45 µM (active)

COCCOc1ccc(C(F)(F)F)cc1NC(=O)COC(=O)c1cc([N+](=O)[O-])ccc1N1CCOCC1
IC50 (Fatty acid synthase [1]): 6.42 µM (active) | IC50 (Fatty acid synthase [2]): 5.58 µM (active)

c1ccc(SCc2cc(-c3ccccc3)no2)cc1
IC50 (Protein skinhead-1): 17.6 µM (active)

O=C(O)c1ccc(CSc2nc[nH]n2)cc1
IC50 [5]: < 0.4 µM (not active)

COc1cc(NC(C)CCCN)c2ncccc2c1Oc1ccccc1 (stereo not given)
AC50 [6]: 0.466 µM (active) | EC50 (Protein RecA): 7.94 µM (active) | AC50 [7]: > 380 µM (inactive)

O=C(N=Nc1c(O)[nH]c2ccc(Cl)cc12)c1cc(-c2cccs2)nc2ccccc12
IC50 [5]: 10.3 µM (not active)

CCOc1ccc(NS(=O)(=O)c2ccc(NC(=S)NC(=O)CC(C)C)cc2)cc1
IC50 [5]: 6.89 µM (not active)

CCOc1ccc(OCC)c(S(=O)(=O)NCCOC23CC4CC(CC(C4)C2)C3)c1
AC50 (INS1): 8.76 µM (active) | IC50 [5]: 8.71 µM (not active)

COc1ccc(OC)c(NC2c3ccccc3C(=O)N2Cc2ccc3c(c2)OCO3)c1 (stereo not given)
IC50 (Nonstructural protein 1): 57.5 µM (active)

CC(C)Oc1ccccc1/C=N/Nc1ccccc1[N+](=O)[O-]
IC50 (Nonstructural protein 1): 31.2 µM (active)

Cc1cc(C)c(NC(=S)NC(=O)c2ccc(-c3ccccc3)cc2)c(C)c1
IC50 [5]: 12.4 µM (not active)

CCN1CCN(Cc2ccc(NC(=O)c3cc(NC(=O)c4cnn(-c5ccccc5)c4N)cc(OC)c3)cc2C(F)(F)F)CC1
IC50 [3]: > 20 µM (inactive) | AC50 (INS1): 19.6 µM (active) | AC50 [4]: 11.7 µM (active)

c1ccc(CSc2ncnc3sccc23)cc1
IC50 (Protein skinhead-1): 92.7 µM (inactive)

Cc1ccc(C(C(=O)NCC2CCCO2)N(C(=O)c2snc(C(N)=O)c2N)c2ccc(F)cc2)o1 (stereo not given)
IC50 [3]: > 20 µM (inactive)

O=C(Nc1cccc(Cl)c1)c1cc(-c2ccco2)on1
IC50 (Protein skinhead-1): > 100 µM (inactive)

Cc1cc(Br)cn2c(Cc3ccsc3)c(-c3ccccc3)nc12
IC50 (Protein skinhead-1): > 100 µM (inactive)

CC(=O)c1ccc(Sc2ccc(C(C)=O)cc2)cc1
IC50 [3]: > 20 µM (inactive)

CCCOc1ccc(NC(=O)CC2C(=O)N(C)C(=S)N2Cc2cccs2)cc1 (stereo not given)
IC50 (Fatty acid synthase [1]): 7.42 µM (active) | IC50 (Fatty acid synthase [2]): 9.62 µM (active)

Cc1ccc(N=Nc2ccc3ccccc3c2O)cc1
IC50 (Nonstructural protein 1): 5.83 µM (active)

Cc1cc2cc(CNC(=O)C3CC3)ccc2n1C
IC50 (Protein skinhead-1): > 100 µM (inactive)

O=C(COC(=O)c1cc([N+](=O)[O-])ccc1NCc1ccccc1)NC1CCCCC1
CC50 (Vero): > 25 µM (active) | IC50 (Fatty acid synthase [1]): 1.64 µM (active) | IC50 (Fatty acid synthase [2]): 1.31 µM (active)
